Test results taken from patent US12617757B2, “Compounds and modules for inhibition of pre-miR-21 and their use in treatment of certain cancers” (University of Florida Research Foundation, Incorporated, priority 2019, dated 2026).

Biological target: T1, RNase L (Homo sapiens, UniProt Q05823)
T1 sequence (Q05823 1-741): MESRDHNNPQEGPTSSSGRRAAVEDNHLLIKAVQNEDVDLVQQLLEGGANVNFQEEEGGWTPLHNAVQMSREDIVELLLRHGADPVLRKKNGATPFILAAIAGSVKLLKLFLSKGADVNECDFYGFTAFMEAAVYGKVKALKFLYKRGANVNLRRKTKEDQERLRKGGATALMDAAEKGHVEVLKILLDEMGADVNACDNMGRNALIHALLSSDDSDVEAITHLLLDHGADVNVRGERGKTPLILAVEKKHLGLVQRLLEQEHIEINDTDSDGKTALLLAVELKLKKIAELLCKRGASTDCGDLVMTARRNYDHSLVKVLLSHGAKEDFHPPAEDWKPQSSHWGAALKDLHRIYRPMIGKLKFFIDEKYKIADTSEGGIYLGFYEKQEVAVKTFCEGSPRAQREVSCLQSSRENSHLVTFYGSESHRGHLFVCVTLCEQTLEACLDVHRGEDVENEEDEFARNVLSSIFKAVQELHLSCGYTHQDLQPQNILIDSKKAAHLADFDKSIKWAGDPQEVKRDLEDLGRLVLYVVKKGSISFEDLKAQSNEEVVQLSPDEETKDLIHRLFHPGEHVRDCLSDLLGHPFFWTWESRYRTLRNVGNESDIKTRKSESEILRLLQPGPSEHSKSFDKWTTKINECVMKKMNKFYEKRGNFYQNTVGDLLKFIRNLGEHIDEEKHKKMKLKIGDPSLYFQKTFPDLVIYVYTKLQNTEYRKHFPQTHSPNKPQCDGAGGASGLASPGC
Assay: In vitro fluorescence recovery assay with model RNA (RNase L activation)
Format: biochemical
Set-up: GST; made in house
Method: In Vitro Fluorescent RNA Cleavage. A model RNA hairpin^15 labeled with a 5′ 6-Fluorescein (6FAM) and 3′ Black Hole Quencher (IQ4) (5′ 6FAM-[…]-3′ IQ4; 5′ FAM/3′ BHQ model RNA) (SEQ ID NO: 3) or a miR-21 Hairpin Precursor RNA labeled with a 5′ 6-Fluorescein (6FAM) and 3′ Black Hole Quencher (IQ4) (5′ 6FAM-[…] […]-3′ IQ4; 5′ FAM/3′ BHQ miR-21 Hairpin Precursor RNA) (SEQ ID NO: 4) was purchased from Chemgenes with HPLC purification. Solutions of RNA (100 nM) were folded at 65° C. for 5 min and slowly cooled to room temperature in 1×RNase L Buffer (25 mM Tris-HCl, pH 7.4, 100 mM KCl) without MgCl2, β-mercaptoethanol or ATP. After folding, the RNA was supplemented with 10 mM MgCl2, fresh 7 mM β-mercaptoethanol, and 50 μM of ATP. Next, 100 nM of RNase L, prepared as described previously^22, and various concentrations of screening compounds were prepared in 1×RNase L Buffer and added to the RNA. […] The samples were incubated at room temperature for 60 min after which the fluorescence intensity (Ex: 485 nm, Em: 525 nm) was measured using a SpectraMax M5 plate reader or Biotek FLx800 plate reader. The percentage change in fluorescence intensity, where enhancement of fluorescence intensity was indicative of RNA cleavage, was determined by calculating the percentage change in sample fluorescent signals relative to the untreated fluorescent signal (Fi, %). […]

SMILES: CCOC(=O)C1=C(Nc2ccccc2)S/C(=C\c2ccc(OC)c(O)c2)C1=O [Compound 3]
- RNase L activation, dose-responsive measurements: most active activator of RNase L
